Read-outs that look alike come from different tables or passages of the source.
System: PD-1-overexpressing Jurkat cells
Assay: Small molecule screen: IL2 secretion (AlphaLISA) from stimulated PD-1-overexpressing Jurkat cells
Format: cell-based, human
Outline: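 Cells (100,000/well) with compound at 3.3 μM final, stimulated by α-CD3/α-CD28/α-PD-1 Dynabeads at an 8:1 bead:cell ratio. IL2 in supernatants measured by AlphaLISA. Hits scored ≥3 SD from the mean of DMSO-treated, α-PD-1-bead-stimulated controls.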

[1] = IL2 level, replicate 1, 3.3 μM compound, α-CD3/α-CD28/α-PD-1 beads
[2] = IL2 level, replicate 2, 3.3 μM compound, α-CD3/α-CD28/α-PD-1 beads
[3] = average of replicate Z scores, 3.3 μM compound

PDK1/Akt/Flt Dual Pathway Inhibitor
Zscore_1 [1]: −10.05
Zscore_2 [2]: −10.59
Zscore_AVG [3]: −10.32

O=C(O)c1ccc2c3c1cccc3c(=O)n1c3ccccc3nc21 [STO-609]
Zscore_1 [1]: −1.71
Zscore_2 [2]: −1.025
Zscore_AVG [3]: −1.368

CCN(CC)CCCCN1c2ccccc2Oc2ccc(Cl)cc21 [Akt Inhibitor X]
Zscore_1 [1]: 2.25
Zscore_2 [2]: 6.382
Zscore_AVG [3]: 4.316

C[C@@H](N)[C@H]1CC[C@H](C(=O)Nc2ccncc2)CC1 [ROCK Inhibitor, Y-27632]
Zscore_1 [1]: −3.269
Zscore_2 [2]: −4.375
Zscore_AVG [3]: −3.822

CC(C)[C@H](CO)Nc1nc(Nc2cccc(Cl)c2)c2ncn(C(C)C)c2n1 [Purvalanol A]
Zscore_1 [1]: −3.126
Zscore_2 [2]: 0.37
Zscore_AVG [3]: −1.378

CC(C)(C)c1cc(C=C(C#N)C#N)cc(Br)c1O [AG 1024]
Zscore_1 [1]: 0.3395
Zscore_2 [2]: 0.506
Zscore_AVG [3]: 0.4228

COc1nccc(-c2c(-c3ccc(F)cc3)ncn2C2CCC(O)CC2)n1 (stereo not drawn) [SB 239063]
Zscore_1 [1]: −0.08397
Zscore_2 [2]: 1.041
Zscore_AVG [3]: 0.4785

Staurosporine, N-benzoyl-
Zscore_1 [1]: −5.987
Zscore_2 [2]: −7.072
Zscore_AVG [3]: −6.529

O=C1NC(=O)c2c1c(-c1ccccc1Cl)cc1[nH]c3ccc(O)cc3c21 [Wee1 Inhibitor]
Zscore_1 [1]: −0.6621
Zscore_2 [2]: −2.209
Zscore_AVG [3]: −1.436

Akt Inhibitor XII, Isozyme- Selective, Akti-2
Zscore_1 [1]: 5.536
Zscore_2 [2]: 15.29
Zscore_AVG [3]: 10.41

O=C(c1cc2cc(O)ccc2[nH]1)c1cc2cc(O)ccc2[nH]1 [Flt-3 Inhibitor II]
Zscore_1 [1]: 1.536
Zscore_2 [2]: 2.085
Zscore_AVG [3]: 1.81

G&omul; 7874, Hydrochloride
Zscore_1 [1]: −4.465
Zscore_2 [2]: −6.385
Zscore_AVG [3]: −5.425

O=C(NC(NC(=S)Nc1ccc(F)c([N+](=O)[O-])c1)C(Cl)(Cl)Cl)C(c1ccccc1)c1ccccc1 (stereo not drawn) [ATM/ATR Kinase Inhibitor]
Zscore_1 [1]: −1.798
Zscore_2 [2]: −1.073
Zscore_AVG [3]: −1.436

N#C/C(=C(/N)Sc1ccccc1N)c1cccc(C(O)c2ccncc2)c1 (stereo not drawn) [MEK Inhibitor I]
Zscore_1 [1]: −4.599
Zscore_2 [2]: −4.873
Zscore_AVG [3]: −4.736

COc1cc2ncnc(Nc3ccc(Oc4ccccc4)cc3)c2cc1OC [Src Kinase Inhibitor I]
Zscore_1 [1]: 4.691
Zscore_2 [2]: 1.808
Zscore_AVG [3]: 3.249

CN(C)c1ccc(/C=C2\C(=O)Nc3ccccc32)cc1 [DMBI]
Zscore_1 [1]: −0.2169
Zscore_2 [2]: 0.4405
Zscore_AVG [3]: 0.1118

Nc1ncnc2c1c(I)cn2[C@@H]1O[C@H](CO)[C@@H](O)[C@H]1O [5-Iodotubercidin]
Zscore_1 [1]: −4.799
Zscore_2 [2]: −6.213
Zscore_AVG [3]: −5.506

CCCC(=O)Oc1ccc2[nH]c(C(=O)c3cc4ccccc4[nH]3)cc2c1 [PDGF Receptor Tyrosine Kinase Inhibitor II]
Zscore_1 [1]: −0.7009
Zscore_2 [2]: 0.7754
Zscore_AVG [3]: 0.03721

O=c1cc(N2CCOCC2)nc2c3ccccc3ccn12 [Compound 401]
Zscore_1 [1]: 2.829
Zscore_2 [2]: 15.49
Zscore_AVG [3]: 9.162

O=C1NC(=O)c2c1c1c3ccccc3n3c1c1c2c2ccccc2n1C1CCC3O1 [SB 218078]
Zscore_1 [1]: −0.8723
Zscore_2 [2]: −1.561
Zscore_AVG [3]: −1.217

O=C1NC(=O)C(c2cn(CCCO)c3ncccc23)=C1c1cnccn1 [GSK-3b Inhibitor XI]
Zscore_1 [1]: 5.72
Zscore_2 [2]: 4.871
Zscore_AVG [3]: 5.296

O=C1C(Cl)=C(N2C(=O)CCC2=O)C(=O)c2ccccc21 [MEK Inhibitor II]
Zscore_1 [1]: −2.22
Zscore_2 [2]: −1.364
Zscore_AVG [3]: −1.792

COc1ccc2c(c[n+](C)c3c4cc5c(cc4ccc23)OCO5)c1OC [Chelerythrine Chloride]
Zscore_1 [1]: 0.1826
Zscore_2 [2]: 0.07537
Zscore_AVG [3]: 0.129

C[S+]([O-])c1ccc(-c2nc(-c3ccc(F)cc3)c(-c3ccncc3)[nH]2)cc1 (stereo not drawn) [SB 203580]
Zscore_1 [1]: −0.8209
Zscore_2 [2]: −0.02124
Zscore_AVG [3]: −0.4211

O=C(O)C=Cc1cc(Br)c(Br)c(Br)c1Br [Casein Kinase II Inhibitor III, TBCA]
Zscore_1 [1]: 1.017
Zscore_2 [2]: 1.548
Zscore_AVG [3]: 1.282

Cc1cc(C=C2C(=O)C=CC2=O)cc(C)c1O [TX-1918]
Zscore_1 [1]: −0.9736
Zscore_2 [2]: −2.336
Zscore_AVG [3]: −1.655

O=C1Cc2c([nH]c3ccc(Br)cc23)-c2ccccc2N1 [Kenpaullone]
Zscore_1 [1]: −0.7695
Zscore_2 [2]: −1.747
Zscore_AVG [3]: −1.258

O=c1c(-c2ccc(F)cc2)c(-c2ccncc2)[nH]n1-c1ccc(Cl)cc1 [p38 MAP Kinase Inhibitor]
Zscore_1: −0.7181
Zscore_2: −1.986
Zscore_AVG: −1.352

N#CC(C#N)=C(N)/C(C#N)=C/c1ccc(O)cc1 [AG 112]
Zscore_1 [1]: −1.54
Zscore_2 [2]: −3.816
Zscore_AVG [3]: −2.678

CCc1nc(-c2ccc(OC)cc2)[nH]c1-c1ccncc1 [SB 202474, Neg Con for p38 MAPK Inhibition Studies]
Zscore_1 [1]: −2.475
Zscore_2 [2]: −0.6025
Zscore_AVG [3]: −1.539

NC(=O)Nc1sc(-c2ccccc2)cc1C(N)=O [IKK-2 Inhibitor VI]
Zscore_1 [1]: −5.576
Zscore_2 [2]: −7.212
Zscore_AVG [3]: −6.394

PIM1 Kinase Inhibitor IV
Zscore_1 [1]: −1.455
Zscore_2 [2]: −0.7294
Zscore_AVG [3]: −1.092

GTP-14564
Zscore_1 [1]: −0.5638
Zscore_2 [2]: 2.605
Zscore_AVG [3]: 1.021

O=C(c1ccccc1)c1ccc(N2CCOCC2)cc1O [DNA-PK Inhibitor V]
Zscore_1 [1]: −2.22
Zscore_2 [2]: −4.112
Zscore_AVG [3]: −3.166

Cc1ncc2ccccc2c1C#N [4-Cyano-3-methylisoquinoline]
Zscore_1 [1]: −0.7566
Zscore_2 [2]: 0.1385
Zscore_AVG [3]: −0.3091

PIM1/2 Kinase Inhibitor V
Zscore_1 [1]: −0.917
Zscore_2 [2]: 0.2008
Zscore_AVG [3]: −0.3581

CC[n+]1c(/C=C/N(C)c2ccccc2)n(-c2ccccc2)c2ccc(-c3nc4ccccc4s3)cc21.[I-] [Akt Inhibitor IV]
Zscore_1 [1]: −5.269
Zscore_2 [2]: −6.844
Zscore_AVG [3]: −6.057

Cc1nc2cc3nc(-c4cccs4)cnc3cc2n1C [AGL 2043]
Zscore_1 [1]: −0.2488
Zscore_2 [2]: 1.253
Zscore_AVG [3]: 0.5019

O=C(Nc1ccc(Cl)cc1)c1ccccc1NCc1ccncc1 [VEGF Receptor Tyrosine Kinase Inhibitor II]
Zscore_1 [1]: −1.404
Zscore_2 [2]: −0.1009
Zscore_AVG [3]: −0.7522

Cc1nc(-c2ccccc2)c(-c2ccncc2)o1 [SC-68376]
Zscore_1 [1]: −1.404
Zscore_2 [2]: −0.2868
Zscore_AVG [3]: −0.8452

Cc1cc(C(C)Nc2ccccc2)c2nc(N3CCOCC3)cc(=O)n2c1 (stereo not drawn) [PI 3-Kβ Inhibitor VI, TGX-221]
Zscore_1 [1]: 2.504
Zscore_2 [2]: 2.528
Zscore_AVG [3]: 2.516

From US11865176B2, “Compositions and methods of modulating anti-tumor immunity” (Dana-Farber Cancer Institute, Inc., priority 2016, dated 2024)
